For this assay, the system named is cholesterol absorption (serum 3H-cholesterol). Briefly: In Vivo Assay of Hypolipidemic Agents using the Rat Cholesterol Absorption Model. More on the design: species or system Sprague-Dawley rats. Particulars: peroral; for inhibition in vivo at 1 mg/kg: po. As for the experimental part: In Vivo Assay of Hypolipidemic Agents using the Rat Cholesterol Absorption Model. This model is based on models described by Burnett et al (2002), Bioorg. Med. Chem. Lett. 2002 Feb. 11;12(3):315-8 and J. Lipid Res. 1999 October;40(10):1747-57. Female Sprague-Dawley rats weighing 150-250 g are separated into groups of […] and fasted overnight. The animals (4-6/group) are dosed perorally with 300 μL test compounds in olive oil or suitable vehicle. Thirty minutes later, 3-5 microCuries ^3H-cholesterol per rat are delivered perorally in 300 μL olive oil. After three hours, 200 μL serum is collected, vortexed with scintillation fluid, and measured for radioactivity in a scintillation counter. Percent inhibition is defined as 100*(1−Ctest/Cctrl), where Ctest and Cctl refer to ^3H levels in serum for the test compound and for the vehicle only control, respectively. Percent inhibition values are reported for a fixed dose. The ED50 is the dose at which the half-maximal effect on serum ^3H levels is observed for a given test compound.
Representative compounds of the invention were tested in the Rat Cholesterol Absorption model above.

Setting [1] is: 1 mg/kg, serum 3H-cholesterol 3 h after cholesterol dose, vs vehicle control.

Consider 23 compounds from patent US7320972B2, “4-Biarylyl-1-phenylazetidin-2-ones” (Microbia, Inc., priority 2003, dated 2008).

One may read the inhibition in vivo as the change of the read-out against control, counted positive when it falls. A high value points to a response far below the control. Usually % inhibition stands for how much of the control response was suppressed. Lower therefore signals a response near the control.

Regarding `O=C1[C@H](CC[C@H](O)c2ccc(F)cc2)[C@@H](c2ccc(-c3cccc(CO)c3)cc2)N1c1ccc(F)cc1` [Example 16, (3R,4S)-1-(4-Fluorophenyl)-3-[(3S)-3-(4-fluorophenyl)-3-hydroxypropyl]-4-(3′-(hydroxymethyl)biphenyl-4-yl)azetidin-2-one], testing at 1 mg/kg under setting [1] gave an inhibition in vivo of 72%. The same measure, in the same setting: the value for `Nc1ccc(-c2ccc([C@@H]3[C@@H](CC[C@H](O)c4ccc(F)cc4)C(=O)N3c3ccc(F)cc3)cc2)cc1` [Example 28, (3R,4S)-4-(4′-aminobiphenyl-4-yl)-1-(4-fluorophenyl)-3-[(3S)-3-(4-fluorophenyl)-3-hydroxypropyl]azetidin-2-one] was 56%; that for `O=C1[C@H](CC[C@H](O)c2ccc(F)cc2)[C@@H](c2ccc(-c3cccc([C@H](O)[C@@H](O)[C@@H](O)[C@H](O)[C@@H](O)CO)c3)cc2O)N1c1ccccc1` [Example 75, (6S)-6-C-(4′-{(2S,3R)-3-[(3S)-3-(4-Fluorophenyl)-3-hydroxypropyl]-4-oxo-1-phenylazetidin-2-yl}-3′-hydroxybiphenyl-3-yl)-D-glucitol] was 68%; that for `O=C1[C@H](CC[C@H](O)c2ccc(F)cc2)[C@@H](c2ccc(-c3cccc(O)c3)cc2)N1c1ccc(-c2ccccc2)cc1` [Example 124, (3R,4S)-1-biphenyl-4-yl-3-[(3S)-3-(4-fluorophenyl)-3-hydroxypropyl]-4-(3′-hydroxybiphenyl-4-yl)azetidin-2-one] was 48%. On to `COc1ccc(C=O)c(-c2ccc([C@@H]3[C@@H](CC[C@H](O)c4ccc(F)cc4)C(=O)N3c3ccc(F)cc3)cc2)c1` [Example 85, 4′-{(2S,3R)-1-(4-fluorophenyl)-3-[(3S)-3-(4-fluorophenyl)-3-hydroxypropyl]-4-oxoazetidin-2-yl}-5-methoxybiphenyl-2-carbaldehyde], for which testing at 1 mg/kg under setting [1] gave an inhibition in vivo of 15%.

`O=C(O)Cc1ccc(-c2ccc([C@@H]3[C@@H](CC[C@H](O)c4ccc(F)cc4)C(=O)N3c3ccc(F)cc3)cc2)cc1` [Example 88, (4′-{(2S,3R)-1-(4-fluorophenyl)-3-[(3S)-3-(4-fluorophenyl)-3-hydroxypropyl]-4-oxoazetidin-2-yl}biphenyl-4-yl)acetic Acid] showed an inhibition in vivo at 1 mg/kg under setting [1] of 30%.

The compound `O=C1[C@H](CCC(O)c2ccc(F)cc2)[C@@H](c2ccc(-c3cccc(S(=O)(=O)O)c3)cc2O)N1c1ccccc1` (stereo partly drawn) [Example 53, Sodium 4′-{(2S,3R)-3-[(3S/R)-3-(4-fluorophenyl)-3-hydroxypropyl]-4-oxo-1-phenylazetidin-2-yl}-3′-hydroxybiphenyl-3-sulfonate] gave an inhibition in vivo at 1 mg/kg under setting [1] of 78%.

Under setting [1], `COc1cc(F)cc(-c2ccc([C@@H]3[C@@H](CC[C@H](O)c4ccc(F)cc4)C(=O)N3c3ccc(F)cc3)cc2)c1` [Example 111, (3R,4S)-4-(3′-fluoro-5′-methoxybiphenyl-4-yl)-1-(4-fluorophenyl)-3-[(3S)-3-(4-fluorophenyl)-3-hydroxypropyl]azetidin-2-one] registered an inhibition in vivo at 1 mg/kg of 72%.

Regarding `O=C1[C@H](CC[C@H](O)c2ccc(F)cc2)[C@@H](c2ccc(-c3ccc4c(c3)OCCO4)cc2)N1c1ccc(F)cc1` [Example 87, (3R,4S)-4-[4-(2,3-dihydro-1,4-benzodioxin-6-yl)phenyl]-1-(4-fluorophenyl)-3-[(3S)-3-(4-fluorophenyl)-3-hydroxypropyl]azetidin-2-one], testing at 1 mg/kg under setting [1] gave an inhibition in vivo of 59%.

As for `O=C1[C@H](CC[C@H](O)c2ccc(F)cc2)[C@@H](c2ccc(-c3ccc(S(=O)(=O)O)cc3)cc2O)N1c1ccccc1` [Example 128, Sodium 4′-{(2S,3R)-3-[(3S)-3-(4-fluorophenyl)-3-hydroxypropyl]-4-oxo-1-phenylazetidin-2-yl}-3′-hydroxybiphenyl-4-sulfonate], testing at 1 mg/kg under setting [1] gave an inhibition in vivo of 60%. As to `O=C1[C@H](CC[C@H](O)c2ccc(F)cc2)[C@@H](c2ccc(-c3cccc([C@@H](O)[C@H]4OC(O)[C@H](O)[C@@H](O)[C@@H]4O)c3)cc2)N1c1ccccc1` (stereo partly drawn) [Example 72, (6R)-6-C-(4′-{(2S,3R)-3-[(3S)-3-(4-Fluorophenyl)-3-hydroxypropyl]-4-oxo-1-phenylazetidin-2-yl}biphenyl-3-yl)-D-glucopyranose], where the note is “0.3 mg/kg (footnote 6), serum 3H-cholesterol vs vehicle control”, the “% inhibition at 0.3 mg/kg” value is reported as 27^6%.

As to `Cc1cc(-c2ccc([C@@H]3[C@@H](CC[C@H](O)c4ccc(F)cc4)C(=O)N3c3ccc(F)cc3)cc2)ccc1F` [Example 94, (3R,4S)-4-(4′-fluoro-3′-methylbiphenyl-4-yl)-1-(4-fluorophenyl)-3-[(3S)-3-(4-fluorophenyl)-3-hydroxypropyl]azetidin-2-one], the inhibition in vivo at 1 mg/kg under setting [1] is 30%. The compound `O=C1[C@H](CC[C@H](O)c2ccc(F)cc2)[C@@H](c2ccc(-c3cccc(O[C@H]4O[C@@H](CO)[C@H](O)[C@@H](O)[C@@H]4O)c3)cc2)N1c1ccc(F)cc1` [Example 95, 4′-{(2S,3R)-1-(4-fluorophenyl)-3-[(3S)-3-(4-fluorophenyl)-3-hydroxypropyl]-4-oxoazetidin-2-yl}biphenyl-3-yl β-L-glucopyranoside] gave an inhibition in vivo at 1 mg/kg under setting [1] of 57%. `C=Cc1ccc(-c2ccc([C@@H]3[C@@H](CC[C@H](O)c4ccc(F)cc4)C(=O)N3c3ccc(F)cc3)cc2)cc1` [Example 84, (3R,4S)-1-(4-fluorophenyl)-3-[(3S)-3-(4-fluorophenyl)-3-hydroxypropyl]-4-(4′-vinylbiphenyl-4-yl)azetidin-2-one] showed an inhibition in vivo at 1 mg/kg under setting [1] of 51%.

Under setting [1], `O=C1[C@H](CC[C@H](O)c2ccc(F)cc2)[C@@H](c2ccc(-c3ccc(P(=O)(O)O)cc3)cc2O)N1c1ccccc1` [Example 127, (4′-{(2S,3R)-3-[(3S)-3-(4-Fluorophenyl)-3-hydroxypropyl]-4-oxo-1-phenylazetidin-2-yl}-3′-hydroxybiphenyl-4-yl)phosphonic Acid] returned an inhibition in vivo at 1 mg/kg of 58%. The same measure, in the same setting: the result for `CO[C@H]1O[C@H](COc2cccc(-c3ccc([C@@H]4[C@@H](CC[C@H](O)c5ccc(F)cc5)C(=O)N4c4ccc(F)cc4)cc3)c2)[C@@H](O)[C@H](O)[C@H]1O` [Example 77, Methyl 6-O-(4′-{(2S,3R)-1-(4-fluorophenyl)-3-[(3S)-3-(4-fluorophenyl)-3-hydroxypropyl]-4-oxoazetidin-2-yl}biphenyl-3-yl)-α-D-glucopyranoside] reads 70%. With `O=C1[C@H](CC[C@H](O)c2ccc(F)cc2)[C@@H](c2ccc(-c3ccc(O)cc3O)cc2)N1c1ccc(F)cc1` [Example 108, (3R,4S)-4-(2′,4′-dihydroxybiphenyl-4-yl)-1-(4-fluorophenyl)-3-[(3S)-3-(4-fluorophenyl)-3-hydroxypropyl]azetidin-2-one], the inhibition in vivo at 1 mg/kg under setting [1] amounted to 69%. On the same count and under the same terms, the result for `O=C1[C@H](CC[C@H](O)c2ccc(F)cc2)[C@@H](c2ccc(-c3cccc(OC[C@@H](O)[C@@H](O)[C@H](O)[C@@H](O)CO)c3)cc2)N1c1ccc(F)cc1` [Example 78, 6-O-(4′-{(2S,3R)-1-(4-Fluorophenyl)-3-[(3S)-3-(4-fluorophenyl)-3-hydroxypropyl]-4-oxoazetidin-2-yl}biphenyl-3-yl)-D-glucitol] reads 51%.

Turning to `C[N+](C)(C)c1cccc(-c2ccc([C@@H]3[C@@H](CC[C@H](O)c4ccc(F)cc4)C(=O)N3c3ccc(F)cc3)cc2)c1` [Example 120, 4′-{(2S,3R)-1-(4-fluorophenyl)-3-[(3S)-3-(4-fluorophenyl)-3-hydroxypropyl]-4-oxoazetidin-2-yl}-N,N,N-trimethylbiphenyl-3-aminium], under setting [1], the “% inhibition at 1 mg/kg” value was 23%. Compound `O=C1[C@H](CC[C@H](O)c2ccc(F)cc2)[C@@H](c2ccc(-c3cccc(P(=O)(O)O)c3)cc2)N1c1ccccc1` [Example 56, (4′-{(2S,3R)-3-[(3S)-3-(4-Fluorophenyl)-3-hydroxypropyl]-4-oxo-1-phenylazetidin-2-yl}biphenyl-3-yl)phosphonic acid] had an inhibition in vivo at 1 mg/kg under setting [1] of 59%. As for `N#Cc1cccc(-c2ccc([C@@H]3[C@@H](CC[C@H](O)c4ccc(F)cc4)C(=O)N3c3ccc(F)cc3)cc2)c1` [Example 14, 4′-{(2S,3R)-1-(4-fluorophenyl)-3-[(3S)-3-(4-fluorophenyl)-3-hydroxypropyl]-4-oxoazetidin-2-yl}biphenyl-3-carbonitrile], the “% inhibition at 5 mg/kg” value (5 mg/kg (footnote 3), serum 3H-cholesterol vs vehicle control) is listed as 32^3%.

As for `O=C1[C@H](CC[C@H](O)c2ccc(F)cc2)[C@@H](c2ccc(-c3ccc([C@H]4O[C@@H](CO)[C@H](O)[C@@H](O)[C@@H]4O)cc3)cc2)N1c1ccc(F)cc1` [Example 116, (1R)-1,5-anhydro-1-(4′-{(2S,3R)-1-(4-fluorophenyl)-3-[(3S)-3-(4-fluorophenyl)-3-hydroxypropyl]-4-oxoazetidin-2-yl}biphenyl-4-yl)-L-glucitol], the inhibition in vivo at 1 mg/kg under setting [1] turned out to be 81%. Still for that read-out and setting: the value for `CS(=O)(=O)c1cccc(-c2ccc([C@@H]3[C@@H](CC[C@H](O)c4ccc(F)cc4)C(=O)N3c3ccccc3)c(O)c2)c1` [Example 123, (3R,4S)-3-[(3S)-3-(4-fluorophenyl)-3-hydroxypropyl]-4-[3-hydroxy-3′-(methylsulfonyl)biphenyl-4-yl]-1-phenylazetidin-2-one] was 72%.
